Reference: patent US11267825B2 (AICURIS GMBH & CO. KG, priority 2017, dated 2022)

Key:
HBV = experiment: Determination of HBV DNA from the supernatants of HepAD38 cells (anti-HBV activity); format: cell-based, hepatitis B virus; details: Hepatitis B virus, 144 h; HBV DNA in HepAD38 supernatant at day 6; read-out: Cell Activity (EC50)
Summary of the method: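 HepAD38 cells (60,000/well) were treated with half-log compound dilutions in tetracycline-free medium to induce HBV production. On day 6, HBV DNA was purified from filtered supernatant and quantified by real-time PCR against plasmid standards. EC50 values came from non-linear regression of relative copy numbers, typically from three experiments in triplicate.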

HBV core protein = HBV core protein (UniProt P03146); format: biochemical; details: read-out: Assembly Activity (IC50); BODIPY-FL labelled core protein, assembly started with NaCl, read after 6 min
Chain of HBV core protein (P03146 whole entry, looked up): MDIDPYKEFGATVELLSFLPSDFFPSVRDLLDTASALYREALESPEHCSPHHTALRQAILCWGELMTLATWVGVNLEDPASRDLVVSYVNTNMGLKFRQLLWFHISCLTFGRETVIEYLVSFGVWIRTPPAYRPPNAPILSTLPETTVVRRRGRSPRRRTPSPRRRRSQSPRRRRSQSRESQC
Summary of the method: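 Fluorescence-quenching assembly assay using E. coli-expressed core protein 1–149 plus Cys150, labelled with BODIPY-FL maleimide, at 1.0–2.0 μM in 50 mM HEPES pH 7.5, 0.5% DMSO. Assembly started with NaCl to […]; fluorescence (ex 477/em 525 nm) read after 6 min. EC50 by non-linear regression, 8-point 0.5-log dilutions.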

SMILES | EC50 (HBV) [µM] | IC50 (HBV core protein) [µM]
Nc1nc2c(s1)CN(C(=O)c1cc3c(Cl)cc(F)cc3[nH]1)CC2 [Example 167, 5-(4-chloro-6-fluoro-1H-indole-2-carbonyl)-4H,5H,6H,7H-[1,3]thiazolo[5,4-c]pyridin-2-amine] | < 1 | < 5
O=C(c1cc2ccccc2[nH]1)N1CCc2nc(NCC(CO)C3CC3)sc2C1 (centres unmarked) [Example 284, 2-cyclopropyl-3-{[5-(1H-indole-2-carbonyl)-4H,5H,6H,7H-[1,3]thiazolo[5,4-c]pyridin-2-yl]amino}propan-1-ol] | < 1 | < 5
COc1cccc2[nH]c(C(=O)N3CCc4nc(C)sc4C3)cc12 [Example 194, 4-methoxy-2-{2-methyl-4H,5H,6H,7H-[1,3]thiazolo[5,4-c]pyridine-5-carbonyl}-1H-indole] | < 100 | < 100
Cc1nc2c(s1)CN(C(=O)c1cc3cc(F)c(F)cc3[nH]1)CC2 [Example 164] | < 1 | < 5
Nc1nc2c(s1)CN(C(=O)c1cc3c(C(F)(F)F)cccc3[nH]1)CC2 [Example 146, 5-(4-(trifluoromethyl)-1H-indole-2-carbonyl)-4H,5H,6H,7H-[1,3]thiazolo[5,4-c]pyridin-2-amine] | < 1 | < 5
CCc1cc(F)cc2[nH]c(C(=O)N3CCc4nc(NCC5(CO)CC5)sc4C3)cc12 [Example 248, [1-({[5-(4-ethyl-6-fluoro-1H-indole-2-carbonyl)-4H,5H,6H,7H-[1,3]thiazolo[5,4-c]pyridin-2-yl]amino}methyl)cyclopropyl]methanol] | < 1 | < 5
COC1(CNc2nc3c(s2)CN(C(=O)c2cc4ccccc4[nH]2)CC3)CCC1 [Example 414, 5-(1H-indole-2-carbonyl)-N-[(1-methoxycyclobutyl)methyl]-4H,5H,6H,7H-[1,3]thiazolo[5,4-c]pyridin-2-amine] | < 1 | < 5
Cc1cccc2[nH]c(C(=O)N3CCc4nc(N)sc4C3)cc12 [Example 149, 5-(4-methyl-1H-indole-2-carbonyl)-41H,5H,6H,7H-[1,3]thiazolo[5,4-c]pyridin-2-amine] | 1 to 10 | < 5
O=C(c1cc2c(F)cc(F)cc2[nH]1)N1CCc2nc(NCCO)sc2C1 [Example 111, 2-{[5-(4,6-difluoro-1H-indole-2-carbonyl)-4H,5H,6H,7H-[1,3]thiazolo[5,4-c]pyridin-2-yl]amino}ethan-1-ol] | < 1 | < 5
COCC(=O)Nc1nc2c(s1)CN(C(=O)c1cc3ccccc3[nH]1)CC2 [Example 3, N-[5-(1H-indole-2-carbonyl)-4H,5H,6H,7H-[1,3]thiazolo[5,4-c]pyridin-2-yl]-2-methoxyacetamide] | < 1 | < 5
O=C(c1cc2ccc(Cl)cc2[nH]1)N1CCc2nc(NC3(CO)CCC3)sc2C1 [Example 299, (1-{[5-(6-chloro-1H-indole-2-carbonyl)-4H,5H,6H,7H-[1,3]thiazolo[5,4-c]pyridin-2-yl]amino}cyclobutyl)methanol] | < 1 | < 5
CCC(C)(CO)CNc1nc2c(s1)CN(C(=O)c1cc3ccccc3[nH]1)CC2 (centres unmarked) [Example 216, 2-({[5-(1H-indole-2-carbonyl)-4H,5H,6H,7H-[1,3]thiazolo[5,4-c]pyridin-2-yl]amino}methyl)-2-methylbutan-1-ol] | < 1 | 5 to 10
O=C(c1cc2ccccc2[nH]1)N1CCc2nc(O)sc2C1 [Example 141, 5-(1H-indole-2-carbonyl)-4H,5H,6H,7H-[1,3]thiazolo[5,4-c]pyridin-2-ol] | 1 to 10 | < 100
CN(C)CC(=O)Nc1nc2c(s1)CN(C(=O)c1cc3ccccc3[nH]1)CC2 [Example 62, 2-(dimethylamino)-N-[5-(1H-indole-2-carbonyl)-4H,5H,6H,7H-[1,3]thiazolo[5,4-c]pyridin-2-yl]acetamide] | < 1 | 5 to 10
O=C(c1cc2ccccc2[nH]1)N1CCc2nc(NC3(c4ccccc4)CC3)sc2C1 [Example 419, 5-(1H-indole-2-carbonyl)-N-(1-phenylcyclopropyl)-4H,5H,6H,7H-[1,3]thiazolo[5,4-c]pyridin-2-amine] | < 1 | 5 to 10
O=C(c1cc2ccccc2[nH]1)N1CCc2nc(NC3CCC3)sc2C1 [Example 429, N-cyclobutyl-5-(1H-indole-2-carbonyl)-4H,5H,6H,7H-[1,3]thiazolo[5,4-c]pyridin-2-amine] | < 1 | < 5
CC(O)c1cc(F)cc2[nH]c(C(=O)N3CCc4nc(N)sc4C3)cc12 (centres unmarked) [Example 15, 1-(2-{2-amino-4H,5H,6H,7H-[1,3]thiazolo[5,4-c]pyridine-5-carbonyl}-6-fluoro-1H-indol-4-yl)ethan-1-ol] | 1 to 10 | 5 to 10
CC1(C)CC1C(=O)Nc1nc2c(s1)CN(C(=O)c1cc3ccccc3[nH]1)CC2 (centres unmarked) [Example 267, N-[5-(1H-indole-2-carbonyl)-4H,5H,6H,7H-[1,3]thiazolo[5,4-c]pyridin-2-yl]-2,2-dimethylcyclopropane-1-carboxamide] | < 1 | 5 to 10
Nc1nc2c(s1)CN(C(=O)c1cc3c(Cl)ccc(F)c3[nH]1)CC2 [Example 85, 5-(4-chloro-7-fluoro-1H-indole-2-carbonyl)-4H,5H,6H,7H-[1,3]thiazolo[5,4-c]pyridin-2-amine] | < 1 | < 5
O=C(Nc1nc2c(s1)CN(C(=O)c1cc3c(Cl)cc(F)cc3[nH]1)CC2)C1CCOCC1 [Example 320, N-[5-(4-chloro-6-fluoro-1H-indole-2-carbonyl)-4H,5H,6H,7H-[1,3]thiazolo[5,4-c]pyridin-2-yl]oxane-4-carboxamide] | < 1 | 5 to 10
Nc1nc2c(s1)CN(C(=O)c1cc3cc(F)c(F)cc3[nH]1)CC2 [Example 159, 5-(5,6-difluoro-1H-indole-2-carbonyl)-4H,5H,6H,7H-[1,3]thiazolo[5,4-c]pyridin-2-amine] | < 1 | < 5
Cc1cc(F)cc2[nH]c(C(=O)N3CCc4nc(N[C@H]5CC[C@@H](O)CC5)sc4C3)cc12 [Example 303, (1s,4s)-4-{[5-(6-fluoro-4-methyl-1H-indole-2-carbonyl)-4H,5H,6H,7H-[1,3]thiazolo[5,4-c]pyridin-2-yl]amino}cyclohexan-1-ol] | < 1 | < 5
O=C(c1cc2ccccc2[nH]1)N1CCc2nc(NS(=O)(=O)C3CC3)sc2C1 [Example 6, N-[5-(1H-indole-2-carbonyl)-4H,5H,6H,7H-[1,3]thiazolo[5,4-c]pyridin-2-yl]cyclopropanesulfonamide] | < 1 | < 100
CC(F)(F)c1cc(F)cc2[nH]c(C(=O)N3CCc4nc(NC(=O)C5CCOCC5)sc4C3)cc12 [Example 401, N-{5-[4-(1,1-difluoroethyl)-6-fluoro-1H-indole-2-carbonyl]-4H,5H,6H,7H-[1,3]thiazolo[5,4-c]pyridin-2-yl}oxane-4-carboxamide] | < 1 | < 5
O=C(c1cc2c(F)cc(F)cc2[nH]1)N1CCc2nc(NCC3(O)CCC3)sc2C1 [Example 314, 1-({[5-(4,6-difluoro-1H-indole-2-carbonyl)-4H,5H,6H,7H-[1,3]thiazolo[5,4-c]pyridin-2-yl]amino}methyl)cyclobutan-1-ol] | < 1 | < 5
